Results reported in ChEMBL document CHEMBL1201862, “PubChem BioAssay data set” (2004).
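Cells were grown in 96-well plates and exposed to each compound for 48 hours at five concentrations; endpoints were interpolated linearly between bracketing concentrations, or set to the highest concentration if not reached. GI50 is the concentration that inhibits growth by half.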 Activity calls are given as the source filed them. No stated cut-off is given here; in the data, active = GI50 up to about 1.1 µM and inactive = higher.

Assays:
Experiment in all cases: DTP human tumour cell line panel, 48 h
786-0 = test system: 786-0
A498 = test system: A498
A549 = test system: A549
ACHN = test system: ACHN
BT-549 = test system: BT-549
CAKI-1 = test system: CAKI-1
CCRF-CEM = test system: CCRF-CEM
COLO 205 = test system: COLO 205
DU-145 = test system: DU-145
EKVX = test system: EKVX
HCC 2998 = test system: HCC 2998
HCT-116 = test system: HCT-116
HCT-15 = test system: HCT-15
HL-60 = test system: HL-60
HOP-62 = test system: HOP-62
HOP-92 = test system: HOP-92
HT-29 = test system: HT-29
Hs-578T = test system: Hs-578T
IGROV-1 = test system: IGROV-1
K562 = test system: K562
KM12 = test system: KM12
LOX IMVI = test system: LOX IMVI
M14 = test system: M14
MCF7 = test system: MCF7
MDA-MB-231 = test system: MDA-MB-231
MDA-MB-435 = test system: MDA-MB-435
MDA-N = test system: MDA-N
MOLT-4 = test system: MOLT-4
Malme-3M = test system: Malme-3M
NCI-H226 = test system: NCI-H226
NCI-H23 = test system: NCI-H23
NCI-H460 = test system: NCI-H460
NCI-H522 = test system: NCI-H522
NCI/ADR-RES = test system: NCI/ADR-RES
OVCAR-3 = test system: OVCAR-3
OVCAR-4 = test system: OVCAR-4
OVCAR-5 = test system: OVCAR-5
OVCAR-8 = test system: OVCAR-8
PC-3 = test system: PC-3
RPMI-8226 = test system: RPMI-8226
RXF 393 = test system: RXF 393
SF-268 = test system: SF-268
SF-295 = test system: SF-295
SF-539 = test system: SF-539
SK-MEL-28 = test system: SK-MEL-28
SK-MEL-2 = test system: SK-MEL-2
SK-MEL-5 = test system: SK-MEL-5
SK-OV-3 = test system: SK-OV-3
SN12C = test system: SN12C
SNB-19 = test system: SNB-19
SNB-75 = test system: SNB-75
SR = test system: SR
SW-620 = test system: SW-620
T47D = test system: T47D
TK-10 = test system: TK-10
U-251 = test system: U-251
UACC-257 = test system: UACC-257
UACC-62 = test system: UACC-62
UO-31 = test system: UO-31

CC(C)(C)c1cc(C(C)(C)C)c2c(c1O)OC(=O)CS2
GI50 (786-0): 6.07 µM (inactive) | GI50 (A498): 13 µM (inactive) | GI50 (A549): 3.59 µM (inactive) | GI50 (ACHN): 3.96 µM (inactive) | GI50 (BT-549): 8.32 µM (inactive) | GI50 (CAKI-1): 5.9 µM (inactive) | GI50 (CCRF-CEM): 4.17 µM (inactive) | GI50 (COLO 205): 2.99 µM (inactive) | GI50 (DU-145): 15.7 µM (inactive) | GI50 (EKVX): 4.31 µM (inactive) | GI50 (HCC 2998): 3.03 µM (inactive) | GI50 (HCT-116): 3.6 µM (inactive) | GI50 (HCT-15): 3.66 µM | GI50 (HL-60): 3.62 µM (inactive) | GI50 (HOP-62): 7.13 µM (inactive) | GI50 (HOP-92): 9.59 µM (inactive) | GI50 (HT-29): 4.34 µM (inactive) | GI50 (Hs-578T): 2.84 µM (inactive) | GI50 (IGROV-1): 7.1 µM (inactive) | GI50 (K562): 3.16 µM (inactive) | GI50 (KM12): 4.44 µM (inactive) | GI50 (LOX IMVI): 8.47 µM (inactive) | GI50 (M14): 7.1 µM (inactive) | GI50 (MCF7): 3.82 µM (inactive) | GI50 (MDA-MB-231): 16.2 µM (inactive) | GI50 (MDA-MB-435): 3.85 µM (inactive) | GI50 (MDA-N): 3.67 µM (inactive) | GI50 (MOLT-4): 4.61 µM (inactive) | GI50 (Malme-3M): 20.8 µM (inactive) | GI50 (NCI-H226): 8.34 µM (inactive) | GI50 (NCI-H23): 4.15 µM (inactive) | GI50 (NCI-H460): 2.75 µM (inactive) | GI50 (NCI-H522): 4.06 µM (inactive) | GI50 (NCI/ADR-RES): 4.55 µM (inactive) | GI50 (OVCAR-3): 3.69 µM (inactive) | GI50 (OVCAR-4): 5.28 µM (inactive) | GI50 (OVCAR-5): 5.85 µM (inactive) | GI50 (OVCAR-8): 5.98 µM (inactive) | GI50 (PC-3): 7.24 µM (inactive) | GI50 (RPMI-8226): 21.1 µM (inactive) | GI50 (RXF 393): 3.61 µM (inactive) | GI50 (SF-268): 5.51 µM (inactive) | GI50 (SF-295): 4.26 µM (inactive) | GI50 (SF-539): 3.72 µM (inactive) | GI50 (SK-MEL-28): 13.4 µM (inactive) | GI50 (SK-MEL-2): 6.93 µM (inactive) | GI50 (SK-MEL-5): 2.88 µM (inactive) | GI50 (SK-OV-3): 13.4 µM (inactive) | GI50 (SN12C): 5.79 µM (inactive) | GI50 (SNB-19): 5.2 µM (inactive) | GI50 (SNB-75): 1.15 µM (inactive) | GI50 (SR): 4.56 µM (inactive) | GI50 (SW-620): 6.52 µM (inactive) | GI50 (T47D): 4.56 µM (inactive) | GI50 (TK-10): 3.88 µM (inactive) | GI50 (U-251): 4.78 µM (inactive) | GI50 (UACC-257): 13.9 µM (inactive) | GI50 (UACC-62): 2.2 µM (inactive) | GI50 (UO-31): 5.73 µM (inactive)
